Results as given in patent US6440984B1, “Use of aryl-substituted pyrimidines as insecticidal and acaricidal agents” (BASF Aktiengesellschaft, priority 1998, dated 2002).

Tests used:
Format in all cases: in vivo
[1] = system: Aphis Fabae, Mixed Instar, Bean Aphid (BA); test: Bean aphid (BA) foliar spray test, mortality after 2 days; conditions: rating scale; for pest or weed control at 300 ppm: Aphis fabae, 48 h, read-out: BA AD-FOLIAR 300 (ppm)
Description: (§1) Test solutions are prepared by dissolving the test compound in a 35% acetone in water mixture to give a concentration of 10,000 ppm. Subsequent dilutions are made with water as needed.
Aphis Fabae, Mixed Instar, Bean Aphid (BA)
Pots containing single nasturtium plants (Tropaeolum sp.) about 5 cm tall are infested with about 100-200 aphids one day before the test. Each pot is sprayed with the test solution for 2 revolutions of a 4 rpm turntable in a hood. The spray is directed to give complete coverage of the plants and aphids. The sprayed pots are set on their sides on white trays and held for 2 days, following which mortality estimates are made. Essentially the same method is used with respect to cotton aphid (CA).

[2] = system: Spodoptera Eridania, 3rd Instar Larvae, Southern Armyworm (SAW); test: Southern armyworm (SAW) leaf-dip test, observations at 5 days; conditions: Southern Army Worm, rating scale; for pest or weed control at 1000 ppm: Spodoptera eridania, foliar, 120 h, read-out: SAW 2^ND-FOLIAR 1000 (ppm)
Description: as §1
Spodoptera Eridania, 3rd Instar Larvae, Southern Armyworm (SAW)
A Sieva lima bean leaf expanded to 7-8 cm in length is dipped in the test solution with agitation for 3 seconds and allowed to dry in a hood. The leaf is then placed in a 100×10 mm petri dish containing a damp filter paper on the bottom and ten 3rd instar caterpillars. At 5 days, observations are made of mortality, reduced feeding, or any interference with normal molting.

[3] = system: Tetranychus Urticae (OP-resistant strain), 2-spotted Spider Mite (TSM); test: Two-spotted spider mite (TSM) plant-dip test, mortality after 2 days; conditions: rating scale; for pest or weed control at 300 ppm: Tetranychus urticae, 48 h, read-out: TSM AD-FOLIAR 300 (ppm)
Description: as §1
Tetranychus Urticae (OP-resistant strain), 2-spotted Spider Mite (TSM)
Sieva lima bean plants with primary leaves expanded to 7-8 cm are selected and cut back to one plant per pot. A small piece is cut from an infested leaf taken from the main colony and placed on each leaf of the test plants. This is done about 2 hours before treatment to allow the mites to move over to the test plant to lay eggs. The size of the cut, infested leaf is varied to obtain about 100 mites per leaf. At the time of test treatment, the piece of leaf used to transfer the mites is removed and discarded. The newly-infested plants are dipped in the test solution for 3 seconds with agitation and set in the hood to dry. After 2 days, one leaf is removed and mortality counts are made.

[4] = system: Diabrotica Virgifera Virgifera Leconte, 3rd Instar Western Corn Rootworm (WCR); test: Western corn rootworm (WCR) soil test, mortality at 5 days; conditions: rating scale; for pest or weed control at 50 ppm: Diabrotica virgifera, 120 h, read-out: WCR 2^ND-SOIL 50 (ppm)
Description: Diabrotica Virgifera Virgifera Leconte, 3rd Instar Western Corn Rootworm (WCR) One cc of fine talc is placed in a 30 mL wide-mouth screw-top glass jar. One mL of the appropriate acetone test solution is pipetted onto the talc so as to provide 1.25 mg of active ingredient per jar. The jars are set under a gentle air flow until the acetone is evaporated. The dried talc is loosened, 1 cc of millet seed is added to serve as food for the insects and 25 mL of moist soil is added to each jar. The jar is capped and the contents thoroughly mixed mechanically. Following this, ten 3rd instar rootworms are added to each jar and the jars are loosely capped to allow air exchange for the larvae. The treatments are held for 5 days when mortality counts are made. Missing larvae are presumed dead, since they decompose rapidly and can not be found. The concentrations of active ingredient used in this test correspond approximately to 50 kg/ha.

FC(F)(F)c1cccc(-c2ccnc(Oc3ccc(Cl)c(Cl)c3)n2)c1 [Compound 20]
BA AD-FOLIAR 300 (ppm) [1]: B (B 45-75% kill)
SAW 2^ND-FOLIAR 1000 (ppm) [2]: A (A 0-45% kill)

CCCc1cnc(Oc2cccc(C(F)(F)F)c2)nc1-c1cccc(C(F)(F)F)c1 [Compound 159]
pest or weed control at 300 ppm [3]: 45 to 75%
pest or weed control at 1000 ppm [2]: 0 to 45%

FC(F)(F)c1cccc(Oc2nccc(-c3cccc(C(F)(F)F)c3)n2)c1 [Compound 109]
pest or weed control at 300 ppm [1]: 45 to 75%
pest or weed control at 1000 ppm [2]: 0 to 45%

Cc1ccc(-c2ccnc(Oc3cccc(C(F)(F)F)c3)n2)cc1 [Compound 147]
pest or weed control at 300 ppm [3]: 76 to 100%
pest or weed control at 300 ppm [1]: 76 to 100%

Fc1ccc(Oc2nccc(-c3ccc(F)c(C(F)(F)F)c3)n2)cc1C(F)(F)F [Compound 70]
TSM AD-FOLIAR 300 (ppm) [3]: B (B 45-75% kill)

Fc1cc(F)cc(-c2ccnc(Oc3ccc(F)c(C(F)(F)F)c3)n2)c1 [Compound 62]
BA AD-FOLIAR 300 (ppm) [1]: B (B 45-75% kill)
SAW 2^ND-FOLIAR 1000 (ppm) [2]: C (C 76-100% kill)

Fc1cccc(Oc2nccc(-c3ccc(Cl)cc3)n2)c1 [Compound 142]
pest or weed control at 300 ppm [3]: 76 to 100%

FC(F)(F)c1ccc(Oc2nccc(-c3ccccc3)n2)cc1Cl [Compound 7]
WCR 2^ND-SOIL 50 (ppm) [4]: C (C 76-100% kill)

CCc1cnc(Oc2ccc(F)c(C(F)(F)F)c2)nc1-c1cccc(C(F)(F)F)c1 [Compound 156]
pest or weed control at 300 ppm [3]: 45 to 75%
pest or weed control at 300 ppm [1]: 76 to 100%
pest or weed control at 1000 ppm [2]: 0 to 45%

CCc1cnc(Oc2ccc(F)c(C(F)(F)F)c2)nc1-c1ccc(Cl)cc1 [Compound 132]
pest or weed control at 300 ppm [3]: 45 to 75%
pest or weed control at 300 ppm [1]: 76 to 100%
pest or weed control at 1000 ppm [2]: 0 to 45%

FC(F)(F)Oc1ccc(-c2ccnc(Oc3cccc(C(F)(F)F)c3)n2)cc1 [Compound 48]
TSM AD-FOLIAR 300 (ppm) [3]: B (B 45-75% kill)
BA AD-FOLIAR 300 (ppm) [1]: B (B 45-75% kill)
SAW 2^ND-FOLIAR 1000 (ppm) [2]: A (A 0-45% kill)

Fc1ccc(Oc2nccc(-c3ccc(Cl)cc3)n2)cc1C(F)(F)F [Compound 115]
pest or weed control at 300 ppm [3]: 45 to 75%
pest or weed control at 1000 ppm [2]: 0 to 45%

FC(F)(F)c1cccc(-c2ccnc(Oc3ccc(Cl)c(Cl)c3)n2)c1 [Compound 18]
TSM AD-FOLIAR 300 (ppm) [3]: A (A 0-45% kill)
BA AD-FOLIAR 300 (ppm) [1]: A (A 0-45% kill)
SAW 2^ND-FOLIAR 1000 (ppm) [2]: A (A 0-45% kill)

CCc1ccc(-c2ccnc(Oc3cccc(C(F)(F)F)c3)n2)cc1 [Compound 15]
TSM AD-FOLIAR 300 (ppm) [3]: C (C 76-100% kill)
BA AD-FOLIAR 300 (ppm) [1]: C (C 76-100% kill)

O=[N+]([O-])c1ccc(Oc2nccc(-c3cccc(C(F)(F)F)c3)n2)cc1C(F)(F)F [Compound 19]
WCR 2^ND-SOIL 50 (ppm) [4]: C (C 76-100% kill)
BA AD-FOLIAR 300 (ppm) [1]: A (A 0-45% kill)

Fc1ccc(-c2ccnc(Oc3cccc(C(F)(F)F)c3)n2)cc1 [Compound 136]
pest or weed control at 300 ppm [3]: 0 to 45%
pest or weed control at 1000 ppm [2]: 0 to 45%

COc1ccc(-c2ccnc(Oc3ccc(Cl)c(C(F)(F)F)c3)n2)cc1 [Compound 35]
WCR 2^ND-SOIL 50 (ppm) [4]: C (C 76-100% kill)

CSc1cc(-c2ccc(Cl)c(Cl)c2)nc(Oc2ccc(F)c(C(F)(F)F)c2)n1 [Compound 85, 2-(3-Trifluoromethyl-4-fluorophenoxy)-4-(3,4-dichlorophenyl)-6-thiomethylpyrimidine]
pest or weed control at 50 ppm [4]: 76 to 100%

Fc1cc(-c2ccnc(Oc3ccc(F)c(Cl)c3)n2)cc(C(F)(F)F)c1 [Compound 56]
WCR 2^ND-SOIL 50 (ppm) [4]: B (B 45-75% kill)

FC(F)(F)Oc1ccc(-c2ccnc(Oc3ccc(Cl)c(C(F)(F)F)c3)n2)cc1 [Compound 46]
BA AD-FOLIAR 300 (ppm) [1]: B (B 45-75% kill)
SAW 2^ND-FOLIAR 1000 (ppm) [2]: B (B 45-75% kill)

O=[N+]([O-])c1cccc(Oc2nccc(-c3ccc(Cl)cc3)n2)c1 [Compound 140]
pest or weed control at 300 ppm [3]: 45 to 75%
pest or weed control at 300 ppm [1]: 0 to 45%

Fc1ccc(Oc2nccc(-c3ccc(Cl)cc3)n2)cc1F [Compound 139]
pest or weed control at 50 ppm [4]: 76 to 100%
pest or weed control at 300 ppm [1]: 76 to 100%

CC(C)(C)c1ccc(-c2ccnc(Oc3ccc(Cl)c(Cl)c3)n2)cc1 [Compound 27]
WCR 2^ND-SOIL 50 (ppm) [4]: C (C 76-100% kill)
BA AD-FOLIAR 300 (ppm) [1]: B (B 45-75% kill)

FC(F)(F)c1cccc(Oc2nccc(-c3ccccc3)n2)c1 [Compound 128]
pest or weed control at 300 ppm [3]: 76 to 100%
pest or weed control at 300 ppm [1]: 45 to 75%

FC(F)(F)c1cccc(Oc2nccc(-c3ccc(Cl)cc3)n2)c1 [Compound 116]
pest or weed control at 300 ppm [3]: 45 to 75%
pest or weed control at 1000 ppm [2]: 0 to 45%

Fc1ccc(Oc2nccc(-c3ccc(Cl)cc3)n2)cc1C(F)(F)F [Compound 4]
TSM AD-FOLIAR 300 (ppm) [3]: A (A 0-45% kill)

FC(F)(F)Oc1cccc(-c2ccnc(Oc3cc(Cl)cc(Cl)c3)n2)c1 [Compound 41]
TSM AD-FOLIAR 300 (ppm) [3]: A (A 0-45% kill)

Fc1ccc(Oc2nccc(-c3ccc(Cl)cc3)n2)cc1Cl [Compound 150]
pest or weed control at 300 ppm [3]: 76 to 100%
pest or weed control at 300 ppm [1]: 45 to 75%

Fc1ccc(Oc2nccc(-c3ccc(C(F)(F)F)cc3)n2)cc1C(F)(F)F [Compound 29]
TSM AD-FOLIAR 300 (ppm) [3]: B (B 45-75% kill)
BA AD-FOLIAR 300 (ppm) [1]: A (A 0-45% kill)
SAW 2^ND-FOLIAR 1000 (ppm) [2]: A (A 0-45% kill)

CSc1cc(-c2ccc(Cl)cc2)nc(Oc2ccc(F)c(C(F)(F)F)c2)n1 [Compound 114]
pest or weed control at 50 ppm [4]: 76 to 100%

Fc1cc(-c2ccnc(Oc3ccc(F)c(C(F)(F)F)c3)n2)cc(C(F)(F)F)c1 [Compound 53]
BA AD-FOLIAR 300 (ppm) [1]: C (C 76-100% kill)
SAW 2^ND-FOLIAR 1000 (ppm) [2]: A (A 0-45% kill)

CS(=O)(=O)c1cc(-c2ccc(Cl)c(Cl)c2)nc(Oc2ccc(F)c(C(F)(F)F)c2)n1 [Compound 92, 2-(3-trifluoromethyl-4-fluorophenoxy)-4-(3,4-dichlorophenyl)-6-methylsulfonylpyrimidine]
pest or weed control at 50 ppm [4]: 76 to 100%

CSc1cc(-c2cccc(Cl)c2)nc(Oc2ccc(Cl)c(C(F)(F)F)c2)n1 [Compound 125]
WCR 2^ND-SOIL 50 (ppm) [4]: B (B 45-75% kill)

FC(F)(F)c1ccc(-c2ccnc(Oc3cccc(C(F)(F)F)c3)n2)cc1 [Compound 30]
TSM AD-FOLIAR 300 (ppm) [3]: B (B 45-75% kill)
BA AD-FOLIAR 300 (ppm) [1]: A (A 0-45% kill)
SAW 2^ND-FOLIAR 1000 (ppm) [2]: A (A 0-45% kill)

FC(F)(F)c1cc(Oc2nccc(-c3ccc(Cl)cc3)n2)ccc1Cl [Compound 122]
pest or weed control at 1000 ppm [2]: 45 to 75%

O=[N+]([O-])c1ccc(Oc2nccc(-c3cc(F)cc(C(F)(F)F)c3)n2)cc1C(F)(F)F [Compound 57]
WCR 2^ND-SOIL 50 (ppm) [4]: C (C 76-100% kill)

FC(F)(F)c1cccc(Oc2nccc(-c3ccc(Br)cc3)n2)c1 [Compound 161]
pest or weed control at 300 ppm [1]: 76 to 100%
pest or weed control at 1000 ppm [2]: 0 to 45%

Fc1ccc(Oc2nccc(-c3ccc(OC(F)(F)F)cc3)n2)cc1C(F)(F)F [Compound 47]
TSM AD-FOLIAR 300 (ppm) [3]: B (B 45-75% kill)
BA AD-FOLIAR 300 (ppm) [1]: A (A 0-45% kill)
SAW 2^ND-FOLIAR 1000 (ppm) [2]: A (A 0-45% kill)

Fc1cc(-c2ccnc(Oc3ccccc3)n2)cc(C(F)(F)F)c1 [Compound 54]
TSM AD-FOLIAR 300 (ppm) [3]: C (C 76-100% kill)
BA AD-FOLIAR 300 (ppm) [1]: C (C 76-100% kill)
SAW 2^ND-FOLIAR 1000 (ppm) [2]: C (C 76-100% kill)

CCc1ccc(-c2ccnc(Oc3ccc(F)c(Cl)c3)n2)cc1 [Compound 13]
BA AD-FOLIAR 300 (ppm) [1]: C (C 76-100% kill)
SAW 2^ND-FOLIAR 1000 (ppm) [2]: C (C 76-100% kill)

Fc1ccc(Oc2nccc(-c3ccc(Cl)c(Cl)c3)n2)cc1C(F)(F)F [Compound 155]
pest or weed control at 300 ppm [1]: 76 to 100%
pest or weed control at 1000 ppm [2]: 0 to 45%

Fc1ccc(-c2ccnc(Oc3ccc(C(F)(F)F)c(F)c3)n2)cc1 [Compound 135]
pest or weed control at 300 ppm [3]: 0 to 45%
pest or weed control at 300 ppm [1]: 0 to 45%
pest or weed control at 1000 ppm [2]: 0 to 45%

FC(F)(F)c1cccc(Oc2nccc(-c3ccc(Cl)cc3)n2)c1 [Compound 2]
TSM AD-FOLIAR 300 (ppm) [3]: C (C 76-100% kill)

CCc1cnc(Oc2cccc(C(F)(F)F)c2)nc1-c1ccc(Cl)c(F)c1 [Compound 82]
pest or weed control at 1000 ppm [2]: 76 to 100%

O=[N+]([O-])c1ccc(Oc2nccc(-c3ccc(OC(F)(F)F)cc3)n2)cc1C(F)(F)F [Compound 49]
TSM AD-FOLIAR 300 (ppm) [3]: B (B 45-75% kill)
BA AD-FOLIAR 300 (ppm) [1]: B (B 45-75% kill)
